According to paper PMC5458547, “Discovery of first-in-class reversible dual small molecule inhibitors against G9a and DNMTs in hematological malignancies” (Nature Communications, 2017):
Read-outs that look alike come from different tables or passages of the source.

Assays:
SU-DHL-4 = experiment: Cell proliferation assay (MTS); format: cell-based; conditions: Homo sapiens, GC-DLBCL, 48 h
BxPC3 = experiment: Cell proliferation assay (MTS); format: cell-based; conditions: Homo sapiens, BXPC-3; Pancreas
[1] = target: T1, ABL1(T315I)-phosphorylated (Homo sapiens, UniProt P00519, T315I); experiment: KINOMEscan kinase profiling; format: binding; conditions: read-out: Percent Control
T1 construct: purchased DiscoverX KINOMEscan (kinases); BPS Bioscience (epigenetic targets)
Experimental: (§1) Kinase Selectivity Profiling
(§2) (out of which 90 are non-mutant kinases) was performed at DiscoverRx (http://www.discoverx.com/home) using the KINOMEscan™ screening platform at a test concentration of 10 µM. Results for primary screen […]
(§3) positive control signal) / (negative control signal – positive control signal) *100, where negative control corresponds to DMSO treatment (100%) and positive control to the signal obtained with a control competitive compound (0%). […]
(§4) using the Hill equation. Each target was assayed in duplicate. […]

BTK = target: T2, BTK (Homo sapiens, UniProt Q06187); experiment: KINOMEscan kinase profiling; format: binding
T2 construct: purchased DiscoverRx (KINOMEscan contract screen)
Experimental: as §1, §2, §3, §4

RIOK2 = target: T3, RIOK2 (Homo sapiens, UniProt Q9BVS4); experiment: KINOMEscan kinase profiling; format: binding; conditions: read-out: Percent Control
T3 construct: purchased DiscoverX KINOMEscan (kinases); BPS Bioscience (epigenetic targets)
Experimental: as §1, §2, §3, §4

AKT1 = target: T4, AKT1 (Homo sapiens, UniProt P31749); experiment: KINOMEscan kinase profiling; format: binding; conditions: read-out: Percent Control
T4 construct: purchased DiscoverX KINOMEscan (kinases); BPS Bioscience (epigenetic targets)
Experimental: as §1, §2, §3, §4

DYRK1B = target: T5, DYRK1B (Homo sapiens, UniProt Q9Y463); experiment: KINOMEscan kinase profiling; format: binding; conditions: read-out: Percent Control
T5 construct: purchased DiscoverX KINOMEscan (kinases); BPS Bioscience (epigenetic targets)
Experimental: as §1, §2, §3, §4

PRKCE = target: T6, PRKCE (Homo sapiens, UniProt Q02156); experiment: KINOMEscan kinase profiling; format: binding
T6 construct: purchased DiscoverRx (DiscoverX), KINOMEscan screening platform
Experimental: as §1, §2, §3, §4

ULK2 = target: T7, ULK2 (Homo sapiens, UniProt Q8IYT8); experiment: KINOMEscan kinase profiling; format: binding; conditions: read-out: Percent Control
T7 construct: purchased DiscoverX KINOMEscan (kinases); BPS Bioscience (epigenetic targets)
Experimental: as §1, §2, §3, §4

FGFR3 = target: T8, FGFR3 (Homo sapiens, UniProt P22607); experiment: KINOMEscan kinase profiling; format: binding; conditions: read-out: Percent Control
T8 construct: purchased DiscoverX KINOMEscan (kinases); BPS Bioscience (epigenetic targets)
Experimental: as §1, §2, §3, §4

p38-beta = target: T9, p38-beta (Homo sapiens, UniProt Q15759); experiment: KINOMEscan kinase profiling; format: binding; conditions: read-out: Percent Control
T9 construct: purchased DiscoverX KINOMEscan (kinases); BPS Bioscience (epigenetic targets)
Experimental: as §1, §2, §3, §4

MKNK2 = target: T10, MKNK2 (Homo sapiens, UniProt Q9HBH9); experiment: KINOMEscan kinase profiling; format: binding; conditions: read-out: Percent Control
T10 construct: purchased DiscoverX KINOMEscan (kinases); BPS Bioscience (epigenetic targets)
Experimental: as §1, §2, §3, §4

SRPK3 = target: T11, SRPK3 (Homo sapiens, UniProt Q9UPE1); experiment: KINOMEscan kinase profiling; format: binding; conditions: read-out: Percent Control
T11 construct: purchased DiscoverX KINOMEscan (kinases); BPS Bioscience (epigenetic targets)
Experimental: as §1, §2, §3, §4

[2] = target: T12, JAK3(JH1domain-catalytic) (Homo sapiens, UniProt P52333); experiment: KINOMEscan kinase profiling; format: binding
T12 construct: JAK3(JH1domain-catalytic); purchased DiscoverRx (DiscoverX), KINOMEscan screening platform
Experimental: as §1, §2, §3, §4

[3] = target: T13, ABL1(E255K)-phosphorylated (Homo sapiens, UniProt P00519, E255K); experiment: KINOMEscan kinase profiling; format: binding; conditions: read-out: Percent Control
T13 construct: purchased DiscoverX KINOMEscan (kinases); BPS Bioscience (epigenetic targets)
Experimental: as §1, §2, §3, §4

JNK1 = target: T14, JNK1 (Homo sapiens, UniProt P45983); experiment: KINOMEscan kinase profiling; format: binding; conditions: read-out: Percent Control
T14 construct: purchased DiscoverX KINOMEscan (kinases); BPS Bioscience (epigenetic targets)
Experimental: as §1, §2, §3, §4

BRAF(V600E) = target: T15, BRAF(V600E) (Homo sapiens, UniProt P15056, V600E); experiment: KINOMEscan kinase profiling; format: binding; conditions: read-out: Percent Control
T15 construct: purchased DiscoverX KINOMEscan (kinases); BPS Bioscience (epigenetic targets)
Experimental: as §1, §2, §3, §4

EGFR(L858R) = target: T16, EGFR(L858R) (Homo sapiens, UniProt P00533, L858R); experiment: KINOMEscan kinase profiling; format: binding; conditions: read-out: Percent Control
T16 construct: purchased DiscoverX KINOMEscan (kinases); BPS Bioscience (epigenetic targets)
Experimental: as §1, §2, §3, §4

AXL = target: T17, AXL (Homo sapiens, UniProt P30530); experiment: KINOMEscan kinase profiling; format: binding; conditions: read-out: Percent Control
T17 construct: purchased DiscoverX KINOMEscan (kinases); BPS Bioscience (epigenetic targets)
Experimental: as §1, §2, §3, §4

OCI-Ly7 = experiment: Cell proliferation assay (MTS); format: cell-based; conditions: Homo sapiens, GC-DLBCL, 48 h
UM-UC-1 = experiment: Cell proliferation assay (MTS); format: cell-based; conditions: Homo sapiens; Bladder
DB = experiment: Cell proliferation assay (MTS); format: cell-based; conditions: Homo sapiens, GC-DLBCL, 48 h
CDK11 = target: T18, CDK11 (Homo sapiens, UniProt Q9BWU1); experiment: KINOMEscan kinase profiling; format: binding; conditions: read-out: Percent Control
T18 construct: purchased DiscoverX KINOMEscan (kinases); BPS Bioscience (epigenetic targets)
Experimental: precipitate the proteins. The mixture was then agitated for 5 min and centrifuged at 13200 rpm for 10 min at 4 °C. A 5 µL aliquot of the resulting supernatant was injected onto the LC-MS/MS system for analysis.
Frozen plasma samples were thawed at room temperature, vortexed thoroughly and subjected to the above described extraction procedure.
The pharmacokinetic parameters were obtained by fitting the blood concentration-time data to a non-compartmental model with the WinNonlin software (Pharsight, Mountain View, CA). […]
concentration-time profile for a dosing regimen of 2.5 mg/kg administered intravenously every 24 h for 3 weeks was simulated with Winnonlin.
as §1, §2, §3
using the Hill equation. […]
MicroScale Thermophoresis (MST) was performed to quantify biomolecular interactions between CM-579 and DNMT1 (full length). […]
Cell proliferation was analyzed using the CellTiter 96 Aqueous One Solution Cell Proliferation Assay (Promega, Madison, W). […]

OCI-Ly10 = experiment: Cell proliferation assay (MTS); format: cell-based, human; conditions: ABC-DLBCL, 48 h, read-out: GI50
[4] = 10 µM, read-out: Percent Control

T6 sequence (Q02156 whole entry): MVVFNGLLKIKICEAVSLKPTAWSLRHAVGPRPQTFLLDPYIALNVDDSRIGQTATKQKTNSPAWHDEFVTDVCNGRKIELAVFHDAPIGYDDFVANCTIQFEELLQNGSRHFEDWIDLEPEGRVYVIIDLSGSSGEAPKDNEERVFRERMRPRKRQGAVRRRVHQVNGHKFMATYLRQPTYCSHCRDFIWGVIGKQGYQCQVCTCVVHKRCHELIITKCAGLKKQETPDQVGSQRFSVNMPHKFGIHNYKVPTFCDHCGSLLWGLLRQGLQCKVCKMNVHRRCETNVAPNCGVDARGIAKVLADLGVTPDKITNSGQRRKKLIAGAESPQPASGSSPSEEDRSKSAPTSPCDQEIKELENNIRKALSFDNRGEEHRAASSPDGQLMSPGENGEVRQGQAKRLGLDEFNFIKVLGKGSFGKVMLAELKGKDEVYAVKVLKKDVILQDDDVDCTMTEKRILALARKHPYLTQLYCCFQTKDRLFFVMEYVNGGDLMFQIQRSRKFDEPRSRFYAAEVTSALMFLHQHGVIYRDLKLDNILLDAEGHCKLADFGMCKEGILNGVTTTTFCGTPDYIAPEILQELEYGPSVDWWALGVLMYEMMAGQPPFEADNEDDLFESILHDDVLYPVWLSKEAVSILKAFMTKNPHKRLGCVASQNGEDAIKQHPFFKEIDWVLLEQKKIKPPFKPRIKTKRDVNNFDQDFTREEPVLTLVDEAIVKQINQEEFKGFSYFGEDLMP
T2 sequence (Q06187 whole entry): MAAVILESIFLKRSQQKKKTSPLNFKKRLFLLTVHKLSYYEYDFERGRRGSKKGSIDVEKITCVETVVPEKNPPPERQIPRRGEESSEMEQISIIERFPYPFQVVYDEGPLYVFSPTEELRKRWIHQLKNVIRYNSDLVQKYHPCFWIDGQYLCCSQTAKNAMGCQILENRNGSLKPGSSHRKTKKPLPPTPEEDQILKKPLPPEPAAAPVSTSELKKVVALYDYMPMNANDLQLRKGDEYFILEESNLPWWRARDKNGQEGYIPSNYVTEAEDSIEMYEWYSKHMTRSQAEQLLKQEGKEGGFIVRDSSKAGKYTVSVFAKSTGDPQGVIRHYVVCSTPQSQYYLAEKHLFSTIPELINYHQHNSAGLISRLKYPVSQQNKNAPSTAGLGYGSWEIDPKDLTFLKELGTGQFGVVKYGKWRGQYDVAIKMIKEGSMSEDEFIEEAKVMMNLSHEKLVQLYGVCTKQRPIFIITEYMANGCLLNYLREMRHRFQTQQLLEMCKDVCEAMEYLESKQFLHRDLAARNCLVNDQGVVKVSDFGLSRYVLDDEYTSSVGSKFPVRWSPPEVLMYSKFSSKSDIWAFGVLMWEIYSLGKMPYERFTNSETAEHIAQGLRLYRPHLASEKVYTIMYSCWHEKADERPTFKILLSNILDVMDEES
T12 sequence (P52333 822-1111 limits assumed): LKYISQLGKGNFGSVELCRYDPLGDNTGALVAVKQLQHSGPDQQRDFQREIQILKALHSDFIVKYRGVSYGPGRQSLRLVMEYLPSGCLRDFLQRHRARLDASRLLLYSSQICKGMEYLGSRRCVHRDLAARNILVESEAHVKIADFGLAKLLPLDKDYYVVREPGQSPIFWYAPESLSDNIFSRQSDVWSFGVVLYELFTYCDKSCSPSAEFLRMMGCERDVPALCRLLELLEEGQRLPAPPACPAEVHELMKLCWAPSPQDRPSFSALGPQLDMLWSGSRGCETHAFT
T15 sequence (P15056 whole entry V600E): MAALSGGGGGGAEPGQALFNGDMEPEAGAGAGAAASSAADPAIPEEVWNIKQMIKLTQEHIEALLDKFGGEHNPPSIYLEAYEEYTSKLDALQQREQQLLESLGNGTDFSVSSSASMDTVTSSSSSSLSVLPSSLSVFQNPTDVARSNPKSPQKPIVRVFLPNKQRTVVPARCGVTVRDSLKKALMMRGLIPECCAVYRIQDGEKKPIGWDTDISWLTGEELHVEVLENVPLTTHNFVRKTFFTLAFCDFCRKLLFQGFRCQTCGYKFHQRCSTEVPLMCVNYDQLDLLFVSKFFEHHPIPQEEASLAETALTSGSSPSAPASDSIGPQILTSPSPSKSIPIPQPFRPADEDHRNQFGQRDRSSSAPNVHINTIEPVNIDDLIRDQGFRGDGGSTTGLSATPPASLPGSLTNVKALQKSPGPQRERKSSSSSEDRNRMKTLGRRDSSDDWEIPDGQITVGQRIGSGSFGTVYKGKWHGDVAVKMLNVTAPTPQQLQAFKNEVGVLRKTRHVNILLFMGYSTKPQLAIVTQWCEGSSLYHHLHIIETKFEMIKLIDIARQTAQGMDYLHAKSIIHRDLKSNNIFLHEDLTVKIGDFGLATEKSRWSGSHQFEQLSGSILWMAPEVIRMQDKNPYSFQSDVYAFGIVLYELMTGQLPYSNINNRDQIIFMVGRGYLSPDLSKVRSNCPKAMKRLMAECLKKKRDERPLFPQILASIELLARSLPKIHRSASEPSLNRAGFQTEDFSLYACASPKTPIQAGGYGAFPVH
T11 sequence (Q9UPE1 whole entry): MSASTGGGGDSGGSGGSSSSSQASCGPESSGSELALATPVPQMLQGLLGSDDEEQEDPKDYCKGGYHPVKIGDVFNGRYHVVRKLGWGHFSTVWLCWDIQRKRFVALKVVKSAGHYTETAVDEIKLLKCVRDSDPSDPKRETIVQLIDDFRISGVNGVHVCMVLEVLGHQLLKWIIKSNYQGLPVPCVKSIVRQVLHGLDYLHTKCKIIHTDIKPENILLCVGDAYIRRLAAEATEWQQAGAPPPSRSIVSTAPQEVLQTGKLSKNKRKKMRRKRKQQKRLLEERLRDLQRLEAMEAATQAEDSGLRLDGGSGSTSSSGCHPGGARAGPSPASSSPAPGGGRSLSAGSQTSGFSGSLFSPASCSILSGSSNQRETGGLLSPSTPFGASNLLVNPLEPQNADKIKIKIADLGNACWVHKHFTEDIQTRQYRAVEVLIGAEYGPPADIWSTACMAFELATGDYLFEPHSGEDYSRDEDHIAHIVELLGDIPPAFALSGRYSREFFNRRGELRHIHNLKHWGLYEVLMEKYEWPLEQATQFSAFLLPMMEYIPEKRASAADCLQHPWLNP
T8 sequence (P22607 23-806): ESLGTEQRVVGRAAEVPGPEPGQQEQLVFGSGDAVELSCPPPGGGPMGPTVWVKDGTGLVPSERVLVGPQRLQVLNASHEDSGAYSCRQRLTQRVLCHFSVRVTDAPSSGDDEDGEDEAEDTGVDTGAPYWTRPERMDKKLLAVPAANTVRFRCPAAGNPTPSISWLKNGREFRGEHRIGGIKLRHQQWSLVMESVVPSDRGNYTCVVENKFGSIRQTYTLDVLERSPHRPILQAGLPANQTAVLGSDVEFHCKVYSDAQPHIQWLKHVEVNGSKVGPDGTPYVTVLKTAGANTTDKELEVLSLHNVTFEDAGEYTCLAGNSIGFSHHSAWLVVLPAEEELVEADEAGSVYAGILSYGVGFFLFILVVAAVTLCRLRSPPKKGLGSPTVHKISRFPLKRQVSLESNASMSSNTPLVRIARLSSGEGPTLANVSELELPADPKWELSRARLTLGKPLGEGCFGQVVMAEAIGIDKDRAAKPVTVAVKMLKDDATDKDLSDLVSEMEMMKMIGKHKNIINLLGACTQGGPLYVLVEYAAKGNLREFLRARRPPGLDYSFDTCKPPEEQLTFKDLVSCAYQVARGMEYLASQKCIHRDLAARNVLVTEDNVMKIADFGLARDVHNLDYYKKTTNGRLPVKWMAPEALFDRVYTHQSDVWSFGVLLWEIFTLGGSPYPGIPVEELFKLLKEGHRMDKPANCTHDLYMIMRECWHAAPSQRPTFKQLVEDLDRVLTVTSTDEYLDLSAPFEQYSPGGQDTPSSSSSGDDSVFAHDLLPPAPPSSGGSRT
T9 sequence (Q15759 whole entry): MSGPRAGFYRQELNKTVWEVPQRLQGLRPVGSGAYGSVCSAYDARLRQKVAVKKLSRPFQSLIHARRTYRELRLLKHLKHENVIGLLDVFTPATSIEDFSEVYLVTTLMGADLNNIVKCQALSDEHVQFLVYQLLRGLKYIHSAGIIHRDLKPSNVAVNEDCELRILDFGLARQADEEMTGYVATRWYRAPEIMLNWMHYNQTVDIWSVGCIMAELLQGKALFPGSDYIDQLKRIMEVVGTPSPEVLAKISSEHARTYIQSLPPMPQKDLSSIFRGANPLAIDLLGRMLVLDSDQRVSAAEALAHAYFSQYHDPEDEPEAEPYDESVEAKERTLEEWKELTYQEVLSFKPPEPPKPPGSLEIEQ
T14 sequence (P45983 whole entry): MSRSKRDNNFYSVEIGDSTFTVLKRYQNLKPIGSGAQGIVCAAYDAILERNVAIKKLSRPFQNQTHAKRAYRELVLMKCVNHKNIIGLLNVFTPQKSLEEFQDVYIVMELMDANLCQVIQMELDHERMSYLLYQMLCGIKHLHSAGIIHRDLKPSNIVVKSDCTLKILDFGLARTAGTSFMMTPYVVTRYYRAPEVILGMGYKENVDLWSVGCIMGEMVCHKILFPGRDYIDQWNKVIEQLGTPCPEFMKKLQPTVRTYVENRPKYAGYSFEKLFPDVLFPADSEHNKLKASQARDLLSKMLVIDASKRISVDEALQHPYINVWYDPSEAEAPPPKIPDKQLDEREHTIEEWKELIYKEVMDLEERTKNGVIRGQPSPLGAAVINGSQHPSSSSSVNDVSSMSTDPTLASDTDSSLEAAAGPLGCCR

COc1cc2c(NC3CCN(C)CC3)cc(-c3ccc(C)o3)nc2cc1OCCCN1CCCC1 [CM-272, 6-methoxy-2-(5-methyl-2-furyl)-N-(1-methyl-4-piperidyl)-7-(3-pyrrolidin-1-ylpropoxy)quinolin-4-amine]
GI50 (SU-DHL-4): 1160 nM | GI50 (BxPC3): 319 nM | remaining binding at 10 µM [1]: 25% | remaining binding at 10 µM (BTK; [4]): 0.5% | Kd (BTK; KINOMEscan): 1100 nM | remaining binding at 10 µM (RIOK2): 27% | remaining binding at 10 µM (AKT1): 100% | remaining binding at 10 µM (DYRK1B): 100% | remaining binding at 10 µM (PRKCE; [4]): 0% | Kd (PRKCE; KINOMEscan): 1200 nM | remaining binding at 10 µM (ULK2): 9.8% | remaining binding at 10 µM (FGFR3): 100% | remaining binding at 10 µM (p38-beta): 92% | remaining binding at 10 µM (MKNK2): 18% | remaining binding at 10 µM (SRPK3): 100% | remaining binding at 10 µM [2, 4]: 0% | Kd ([2]; KINOMEscan): 1800 nM | remaining binding at 10 µM [3]: 5.5% | remaining binding at 10 µM (JNK1): 25% | remaining binding at 10 µM (BRAF(V600E)): 27% | remaining binding at 10 µM (EGFR(L858R)): 100% | remaining binding at 10 µM (AXL): 100% | GI50 (OCI-Ly7): 534 nM | GI50 (UM-UC-1): 842 nM | GI50 (DB): 1310 nM | remaining binding at 10 µM (CDK11): 88%

COc1cc2c(NCC3CCN(C)CC3)cc(-c3ccc(C)o3)nc2cc1OCCCN1CCCC1 [CM-579, 6-methoxy-2-(5-methyl-2-furyl)-N-[(1-methyl-4-piperidyl)methyl]-7-(3-pyrrolidin-1-ylpropoxy)quinolin-4-amine]
GI50 (OCI-Ly10): < 31 nM | GI50 (OCI-Ly10; Homo sapiens, OCI-Ly10, 48 h): 31 nM
